Measurements: article PMC3556037, “Stimulation of Inositol 1,4,5-Trisphosphate (IP3) Receptor Subtypes by Analogues of IP3” (PLoS ONE, 2013)
Where two headings read alike, the source gives them in different places.

How the values were obtained:
Experiment in all cases: Ca2+ release from ER of permeabilized DT40 cells, luminal Mag fluo-4
[1] = target: T1, IP3R3 (Rattus norvegicus, UniProt Q63269); type: cell-based
T1 construct: gene Itpr3; full-length, homotetramer, stably expressed in DT40 cells lacking all endogenous IP3R; saponin-permeabilized cells
Text: (§1) Ca2+ release from ER of permeabilized DT40 cells, luminal Mag fluo-4 on IP3R3

[2] = target: T2, IP3R2 (Mus musculus, UniProt Q9Z329); type: cell-based
T2 construct: gene Itpr2; full-length, homotetramer, stably expressed in DT40 cells lacking all endogenous IP3R; saponin-permeabilized cells
T2 sequence (Q9Z329 whole entry): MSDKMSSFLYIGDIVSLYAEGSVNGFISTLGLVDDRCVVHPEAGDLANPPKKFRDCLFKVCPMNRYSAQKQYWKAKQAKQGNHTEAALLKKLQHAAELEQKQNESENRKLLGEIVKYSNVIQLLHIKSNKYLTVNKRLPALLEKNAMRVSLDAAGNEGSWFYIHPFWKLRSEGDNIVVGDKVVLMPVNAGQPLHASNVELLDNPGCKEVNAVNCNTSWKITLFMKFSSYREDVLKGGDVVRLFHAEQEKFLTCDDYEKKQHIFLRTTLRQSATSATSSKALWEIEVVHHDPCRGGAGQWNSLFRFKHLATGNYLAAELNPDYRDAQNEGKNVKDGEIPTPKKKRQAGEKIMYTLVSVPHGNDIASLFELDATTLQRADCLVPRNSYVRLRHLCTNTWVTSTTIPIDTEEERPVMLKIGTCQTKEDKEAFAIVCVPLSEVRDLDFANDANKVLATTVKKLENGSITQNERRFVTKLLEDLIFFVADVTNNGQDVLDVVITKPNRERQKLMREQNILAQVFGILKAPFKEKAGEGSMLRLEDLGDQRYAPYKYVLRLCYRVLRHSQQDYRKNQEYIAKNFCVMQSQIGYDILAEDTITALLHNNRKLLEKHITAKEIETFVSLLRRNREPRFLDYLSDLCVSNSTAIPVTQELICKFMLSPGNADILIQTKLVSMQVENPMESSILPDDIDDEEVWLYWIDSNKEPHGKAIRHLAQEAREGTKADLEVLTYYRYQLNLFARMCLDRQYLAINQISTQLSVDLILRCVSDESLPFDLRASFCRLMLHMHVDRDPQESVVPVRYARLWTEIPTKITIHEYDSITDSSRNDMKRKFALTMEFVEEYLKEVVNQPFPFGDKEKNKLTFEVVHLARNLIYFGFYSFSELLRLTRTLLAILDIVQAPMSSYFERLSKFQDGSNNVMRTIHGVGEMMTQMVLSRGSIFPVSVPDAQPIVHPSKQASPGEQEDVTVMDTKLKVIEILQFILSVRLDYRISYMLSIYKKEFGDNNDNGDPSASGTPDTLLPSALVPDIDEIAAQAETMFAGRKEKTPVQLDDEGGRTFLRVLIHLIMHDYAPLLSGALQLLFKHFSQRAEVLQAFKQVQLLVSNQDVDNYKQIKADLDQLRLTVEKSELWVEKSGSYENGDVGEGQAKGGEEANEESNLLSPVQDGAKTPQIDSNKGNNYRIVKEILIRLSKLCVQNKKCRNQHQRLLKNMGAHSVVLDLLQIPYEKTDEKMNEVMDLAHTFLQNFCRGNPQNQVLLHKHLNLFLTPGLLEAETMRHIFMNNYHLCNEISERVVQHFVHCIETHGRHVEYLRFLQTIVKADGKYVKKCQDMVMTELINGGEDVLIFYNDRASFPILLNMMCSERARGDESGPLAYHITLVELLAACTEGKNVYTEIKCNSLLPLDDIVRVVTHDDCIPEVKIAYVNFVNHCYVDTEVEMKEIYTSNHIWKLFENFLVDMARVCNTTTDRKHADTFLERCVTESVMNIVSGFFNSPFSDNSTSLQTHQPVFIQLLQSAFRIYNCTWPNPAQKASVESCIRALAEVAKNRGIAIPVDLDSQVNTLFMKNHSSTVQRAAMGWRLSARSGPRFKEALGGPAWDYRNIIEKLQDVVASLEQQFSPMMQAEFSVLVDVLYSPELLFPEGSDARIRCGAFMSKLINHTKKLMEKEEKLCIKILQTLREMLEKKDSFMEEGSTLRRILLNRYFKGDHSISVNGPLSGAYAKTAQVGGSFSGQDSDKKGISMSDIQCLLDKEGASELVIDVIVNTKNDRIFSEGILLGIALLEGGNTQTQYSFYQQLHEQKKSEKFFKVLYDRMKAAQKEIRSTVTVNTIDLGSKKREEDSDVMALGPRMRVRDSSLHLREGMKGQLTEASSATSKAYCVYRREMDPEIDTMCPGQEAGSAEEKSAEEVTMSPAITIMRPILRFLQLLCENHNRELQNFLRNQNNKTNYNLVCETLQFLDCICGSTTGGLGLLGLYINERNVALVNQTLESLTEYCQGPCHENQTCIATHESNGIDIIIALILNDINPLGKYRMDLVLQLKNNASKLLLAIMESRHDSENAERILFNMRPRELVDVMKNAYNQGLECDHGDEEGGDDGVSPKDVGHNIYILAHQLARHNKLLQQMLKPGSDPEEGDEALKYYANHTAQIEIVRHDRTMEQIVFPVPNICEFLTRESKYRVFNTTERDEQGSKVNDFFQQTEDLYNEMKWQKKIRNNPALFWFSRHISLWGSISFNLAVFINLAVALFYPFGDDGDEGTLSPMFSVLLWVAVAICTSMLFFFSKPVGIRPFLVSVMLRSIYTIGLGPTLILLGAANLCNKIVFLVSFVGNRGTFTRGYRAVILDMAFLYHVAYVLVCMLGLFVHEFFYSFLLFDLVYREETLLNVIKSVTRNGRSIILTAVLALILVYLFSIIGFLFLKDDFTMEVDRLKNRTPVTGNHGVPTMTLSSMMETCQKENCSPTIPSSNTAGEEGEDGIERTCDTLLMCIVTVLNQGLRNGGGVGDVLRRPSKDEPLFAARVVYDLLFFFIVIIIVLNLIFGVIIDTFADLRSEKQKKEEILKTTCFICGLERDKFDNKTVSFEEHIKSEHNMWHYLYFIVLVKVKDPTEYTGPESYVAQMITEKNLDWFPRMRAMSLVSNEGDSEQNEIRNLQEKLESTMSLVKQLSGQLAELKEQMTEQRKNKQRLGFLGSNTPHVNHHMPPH
Text: Ca2+ release from ER of permeabilized DT40 cells, luminal Mag fluo-4 on IP3R2

[3] = target: T1, IP3R3; type: biochemical
Text: as §1

[4] = 100 µM, 1.5 mM MgATP, free Ca2+ ~220 nM, pH 7, 20 °C, thapsigargin 1 µM, unreliable: paper suspects minor contamination by active IP3

Structure (SMILES)	EC50 [1] [µM]	EC50 [2] [µM]	EC50 [3] [µM]	IP3R3 / Ca^2+release (%) [1, 4] [%]	IP3R2 / Ca^2+release (%) [2, 4] [%]
O=P(O)(O)O[C@@H]1[C@@H](O)[C@H](OP(=O)(O)O)C[C@H](O)[C@H]1OP(=O)(O)O [2-deoxy(1,4,5)IP3]	0.324	0.115	–	–	–
O=P(O)(O)O[C@@H]1[C@@H](O)[C@H](OP(=O)(O)O)[C@H](O)C[C@H]1OP(=O)(O)O [3-deoxy(1,4,5)IP3]	–	5.89	15.8	–	–
O=P(O)(O)O[C@H]1[C@H](O)[C@@H](O)[C@H](OP(=O)(O)O)[C@@H](OP(=O)(O)O)[C@H]1O [(1,3,4)IP3]	–	–	–	2±1	18±6
O=P(O)(O)O[C@@H]1[C@H](O)[C@H](O)[C@@H](OP(=O)(O)O)[C@H](OP(=O)(O)O)[C@H]1O [(1,4,5)IP3]	0.417	0.145	–	–	–
O=P(O)(O)O[C@@H]1[C@@H](O)[C@@H](O)[C@@H](OP(=O)(O)O)[C@H](OP(=O)(O)O)[C@H]1O [(1,4,6)IP3]	15.8	12.6	–	–	–
O=P(O)(O)O[C@@H]1[C@@H](O)[C@H](O)[C@H](O)[C@H](O)[C@H]1OP(=O)(O)O [(4,5)IP2]	11.5	6.31	–	–	–
CN(C)c1ccc(C(=C2C=CC(=[N+](C)C)C=C2)c2ccc(C(=O)NCCCOP(=O)(O)O[C@@H]3[C@H](O)[C@H](O)[C@@H](OP(=O)(O)O)[C@H](OP(=O)(O)O)[C@H]3O)cc2)cc1 [MG(1,4,5)IP3]	–	0.708	1.74	–	–
